{
  "source": "patent US20060258746A1",
  "about": "“Oral medicament for improvement in going to sleep or waking” (Kyowa Hakko Kogyo Co., Ltd., priority 2005, published 2006)",
  "key": {"[1]": {"tested_on": "subjects", "experiment": "Test Example 1: intake of ornithine tablets, improvement in waking compared with before administration", "format": "in vivo, human"}, "[2]": {"tested_on": "normal subjects", "experiment": "Test Example 2: double blind parallel group test against tablets without ornithine, going to sleep and waking rated by Visual Analogue Scale (VAS) method", "format": "in vivo, human", "conditions": "6 tablets of example 1 a day for 3 weeks; 7 subjects per group; 45 to 64 year", "experimental": "Six tablets of example 1 (the tablet containing ornithine) or 6 tablets of comparative example 1 (the tablet not containing ornithine) were administered to two groups with 7 subjects out of 14 normal subjects of each male and female between 45 to 64 year a day for 3 weeks.\nBefore the administration and just after the administration, the improvements in going to sleep and waking of each subject were evaluated using Visual Analogue Scale (VAS) method.\nSpecifically each end of the segment has a criterion of expression. Referring to FIG. 1, each subject marked somewhere in the line, corresponding to each term of the questionnaires. The distance (mm) from the left end of the line to the marked point was measured and the difference between before and after the test was calculated. The difference by the value before the test was shown in the percentage calculated; and each average value and standard deviation for each group were calculated. Further the average improvement ratio (%) was the value obtained by subtracting the average value of the placebo group from the average value of ornithine group. Further, it was confirmed that there was no difference between two groups before the administration test.\nFurther the test was carried out under a random assignment and the comparison between the double blind parallel groups was carried out. […]"}},
  "data": [
    {"smiles": "NCCC[C@H](N)C(=O)O", "note": "[ornithine]", "values": [
      {"measurement": "effect on the waking process (conclusion of test result)", "setting": "[1]; oral intake of ornithine tablets", "value": "improved the waking process"},
      {"measurement": "subjects who showed an improvement in waking", "setting": "[1]; oral, ornithine taken just before going to sleep", "value": "3 subjects out of the 6 subjects"},
      {"measurement": "effect of intake just before going to sleep (conclusion of test result)", "setting": "[1]; oral, taken just before going to sleep", "value": "effective"},
      {"measurement": "improvement in going to sleep (VAS, average improvement ratio vs placebo group, FIG. 2)", "setting": "[2]", "value": "improvement in going to sleep were obtained"},
      {"measurement": "improvement in the waking process (VAS, average improvement ratio vs placebo group, FIG. 2)", "setting": "[2]", "value": "improvement in the waking process was evident"}
    ]}
  ]
}
